Test results published in patent US20130005721A1, “INDOLIZINE INHIBITORS OF 5-LIPOXYGENASE” (PANMIRA PHARMACEUTICALS, LLC, priority 2009, published 2013).

System: human leukocytes (LTB4 production, calcium ionophore stimulated)
Assay: Human Leukocyte LTB4 Inhibition Assay
Type: cell-based
Conditions: Leukocyte, LTB4 by ELISA, read-out: LTB4 HLA IC50
Outline: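 Human peripheral leukocytes (1.25×10^5 cells/ml) were isolated by dextran sedimentation and hypotonic RBC lysis. They were preincubated with drug 5 min at 37 °C, then stimulated 30 min at 37 °C with calcium ionophore […] (working solution 1.25 mM). Supernatant LTB4 was measured by ELISA. IC50 versus vehicle came from nonlinear regression of % inhibition against log concentration.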

Row | IC50 | Compound
1 | < 0.3 µM | CCC(O)(c1cn(Cc2ccn3c(-c4ccc(OC)nc4)c(C#N)cc3c2)nn1)C(F)(F)F (single isomer, unassigned) [Compound 1-79, 7-[4-(1-Hydroxy-1-trifluoromethyl-propyl)-[1,2,3]triazol-1-ylmethyl]-3-(6-methoxy-pyridin-3-yl)-indolizine-2-carbonitrile]
2 | 0.3 to 1 µM | CCC(O)(c1cn(Cc2ccn3c(-c4ccc(F)cc4)c(CN4CCOCC4)cc3c2)nn1)C(F)(F)F (stereo not drawn) [Compound 1-38, 1,1,1-Trifluoro-2-{1-[3-(4-fluoro-phenyl)-2-morpholin-4-ylmethyl-indolizin-7-ylmethyl]-1H-[1,2,3]triazol-4-yl}-butan-2-ol]
3 | > 1 µM | CCC(O)(c1cn(Cc2ccn3c(-c4ccc(OC)nc4)c(C(N)=O)c(C(=O)C(F)(F)F)c3c2)nn1)C(F)(F)F (single isomer, unassigned) [Compound 1-82, 7-[4-(1-Hydroxy-1-trifluoromethyl-propyl)-[1,2,3]triazol-1-ylmethyl]-3-(6-methoxy-pyridin-3-yl)-1-(2,2,2-trifluoro-acetyl)-indolizine-2-carboxylic acid amide]
4 | < 0.3 µM | CCOC(=O)c1cc2cc(Cn3cc(C(CC)(OC(=O)c4ccc([N+](=O)[O-])cc4)C(F)(F)F)nn3)ccn2c1 (single isomer, unassigned) [Compound 1-86, 7-{4-[1-(4-Nitro-benzoyloxy)-1-trifluoromethyl-propyl]-[1,2,3]triazol-1-ylmethyl}-indolizine-2-carboxylic acid ethyl ester]
5 | 0.3 to 1 µM | CCOC(=O)c1cc2cc(Cn3cc(C(O)(CC)C(F)(F)F)nn3)ccn2c1-c1ccc(=O)n(C)c1 (stereo not drawn) [Compound 1-62, 7-[4-(1-Hydroxy-1-trifluoromethyl-propyl)-[1,2,3]triazol-1-ylmethyl]-3-(1-methyl-6-oxo-1,6-dihydro-pyridin-3-yl)-indolizine-2-carboxylic acid ethyl ester]
6 | < 0.3 µM | CCOC(=O)c1cc2cc(Cn3cc(C(O)(CC)C(F)(F)F)nn3)ccn2c1-c1cccc(F)c1 (stereo not drawn) [Compound 1-46, 3-(3-Fluoro-phenyl)-7-[4-(1-hydroxy-1-trifluoromethyl-propyl)-[1,2,3]triazol-1-ylmethyl]-indolizine-2-carboxylic acid ethyl ester]
7 | 0.3 to 1 µM | CCC(O)(c1cn(Cc2ccn3c(-c4ccc(OC)nc4)c(C(N)=O)cc3c2)nn1)C(F)(F)F (stereo not drawn) [Compound 1-35, 7-[4-(1-Hydroxy-1-trifluoromethyl-propyl)-[1,2,3]triazol-1-ylmethyl]-3-(6-methoxy-pyridin-3-yl)-indolizine-2-carboxylic acid amide]
8 | < 0.3 µM | CCOC(=O)c1cc2cc(Cn3cc(C(O)(CC)C(F)(F)F)nn3)ccn2c1Cl (single isomer, unassigned) [Compound 1-87, 3-Chloro-7-[4-(1-hydroxy-1-trifluoromethyl-propyl)-[1,2,3]triazol-1-ylmethyl]-indolizine-2-carboxylic acid ethyl ester]

More lines, now with the values behind:

Row | Compound | IC50
9 | CCC(O)(c1cn(Cc2ccn3c(-c4ccc(F)cc4)c(CS(C)(=O)=O)cc3c2)nn1)C(F)(F)F (stereo not drawn) [Compound 1-34, 1,1,1-Trifluoro-2-{1-[3-(4-fluoro-phenyl)-2-methanesulfonylmethyl-indolizin-7-ylmethyl]-1H-[1,2,3]triazol-4-yl}-butan-2-ol] | < 0.3 µM
10 | CCOC(=O)c1cc2cc(Cn3ncc(C(O)(CC)C(F)(F)F)n3)ccn2c1-c1ccc(F)cc1 (stereo not drawn) [Compound 1-3, 3-(4-Fluoro-phenyl)-7-[4-(1-hydroxy-1-trifluoromethyl-propyl)-[1,2,3]triazol-2-ylmethyl]-indolizine-2-carboxylic acid ethyl ester] | < 0.3 µM
11 | CCOC(=O)c1cc2cc(Cn3cc(C(O)(CC)C(F)(F)F)nn3)ccn2c1-c1ccc(F)nc1 (stereo not drawn) [Compound 1-29, 3-(6-Fluoro-pyridin-3-yl)-7-[4-(1-hydroxy-1-trifluoromethyl-propyl) [1,2,3]triazol-1-ylmethyl]-indolizine-2-carb oxylic acid ethyl ester] | < 0.3 µM
12 | CCC(O)(c1cn(Cc2ccn3c(-c4cccnc4)c(C(N)=O)cc3c2)nn1)C(F)(F)F (stereo not drawn) [Compound 1-25, 7-[4-(1-Hydroxy-1-trifluoromethyl-propyl)-[1,2,3]triazol-1-ylmethyl]-3-pyridin-3-yl-indolizine-2-carboxylic acid amide] | > 1 µM
13 | CCC(O)(c1cn(Cc2ccn3c(-c4ccc(F)cc4)c(C(=O)O)cc3c2)nn1)C(F)(F)F (stereo not drawn) [Compound 1-5, 3-(4-Fluoro-phenyl)-7-[4-(1-hydroxy-1-trifluoromethyl-propyl)-[1,2,3]triazol-1-ylmethyl]-indolizine-2-carboxylic acid] | 0.3 to 1 µM
14 | CCC(O)(c1cn(Cc2ccn3c(-c4ccc(F)cc4)c(C(N)=O)nc3c2)nn1)C(F)(F)F (stereo not drawn) [Compound 1-14, 3-(4-Fluoro-phenyl)-7-[4-(1-hydroxy-1-trifluoromethyl-propyl)-[1,2,3]triazol-1-ylmethyl]-imidazo[1,2-a]pyridine-2-carboxylic acid amide] | 0.3 to 1 µM
15 | CCC(O)(c1cn(Cc2ccn3c(-c4ccc(F)cc4)c(C(N)=O)cc3c2)nn1)C(F)(F)F (stereo not drawn) [Compound 1-6, 3-(4-Fluoro-phenyl)-7-[4-(1-hydroxy-1-trifluoromethyl-propyl)-[1,2,3]triazol-1-ylmethyl]-indolizine-2-carboxylic acid amide] | < 0.3 µM
16 | CCC(O)(c1cn(Cc2ccn3c(-c4ccc(F)nc4)c(C#N)cc3c2)nn1)C(F)(F)F (stereo not drawn) [Compound 1-32, 3-(6-Fluoro-pyridin-3-yl)-7-[4-(1-hydroxy-1-trifluoromethyl-propyl)-[1,2,3]triazol-1-ylmethyl]-indolizine-2-carbonitrile] | < 0.3 µM
17 | CCC(O)(c1nnc(NCc2ccn3c(-c4ccc(F)cc4)c(C(N)=O)cc3c2)o1)C(F)(F)F (single isomer, unassigned) [Compound 1-20, 3-(4-Fluoro-phenyl)-7-{[5-(1-hydroxy-1-trifluoromethyl-propyl)-[1,3,4]oxadiazol-2-ylamino]-methyl}-indolizine-2-carboxylic acid amide] | < 0.3 µM
18 | CCOC(=O)c1c(Br)c2cc(CNc3nnc(C(O)(CC)C(F)(F)F)o3)ccn2c1-c1ccc(F)cc1 (stereo not drawn) [Compound 1-15, 1-Bromo-3-(4-fluoro-phenyl)-7-{[5-(1-hydroxy-1-trifluoromethyl-propyl)-[1,3,4]oxadiazol-2-ylamino]-methyl}-indolizine-2-carboxylic acid ethyl ester] | < 0.3 µM
